Columns and labels:
[1] = tested on: lambsquarters; assay: Test Example 4: herbicidal effect by soil treatment (Table 19, symbol O); format: in vivo, lambsquarters (Chenopodium album); conditions: amount of applied herbicide 320 g/ha
Outline: (§1)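 Pre-emergence style soil spray: seeds under ~1.5 cm sterilized diluvial soil received a uniform coat of emulsion diluted to the predetermined herbicide amount. Greenhouse 25–30° C; readout at week three on previously defined criteria.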

[2] = tested on: blackgrass; assay: Test Example 4: herbicidal effect by soil treatment (Table 19, symbol J); format: in vivo, blackgrass (Alopecurus myosuroides); conditions: amount of applied herbicide 320 g/ha
Outline: as §1

[3] = tested on: Japanese bulrush; assay: Test Example 2: herbicidal activity, application during weed generation under submerged conditions (Table 17, symbol B); format: in vivo, Japanese bulrush (Schoenoplectus juncoides); conditions: AAH 320 g/ha; application during weed generation, submerged conditions
Outline: (§2)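 In this pot test, flooded alluvial soil (water depth 4 cm) holds all three species sown as a mixture. Once seedlings have one to two leaves, the compound's emulsion, thinned with water to the intended dose, is poured on the water; grading follows after three weeks on the earlier criteria.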

[4] = tested on: green foxtail; assay: Test Example 5: herbicidal effect by foliage application, plastic box (Table 20, symbol G); format: in vivo, green foxtail (Setaria viridis); conditions: foliage application
Outline: (§3)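 Plants were sown into sterilized diluvial soil under about 1.5 cm cover and kept in a greenhouse at 25° C. to 30° C. Fourteen days on, foliage received an even spray of the diluted emulsion. Herbicidal or crop effect was judged three weeks afterwards.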

[5] = tested on: windgrass; assay: Test Example 4: herbicidal effect by soil treatment (Table 19, symbol L); format: in vivo, windgrass (Apera spica-venti); conditions: amount of applied herbicide 320 g/ha
Outline: as §1

[6] = tested on: barnyard grass; assay: Test Example 3: herbicidal effect by foliage application, Wagner pot (Table 18, symbol H); format: in vivo, barnyard grass (Echinochloa crus-galli); conditions: amount of applied herbicide 320 g/ha
Outline: (§4)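 Plants were sown in alluvial soil held under 0.1–0.5 cm standing water and grown 14 days in a greenhouse at 25–30 °C. An emulsifiable formulation, water-diluted to the set dose, was then sprayed onto the foliage, and effects were scored three weeks later using previously defined criteria.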

[7] = tested on: chickweed; assay: Test Example 5: herbicidal effect by foliage application, plastic box (Table 20, symbol P); format: in vivo, common chickweed (Stellaria media); conditions: foliage application
Outline: as §3

[8] = tested on: lambsquarters; assay: Test Example 5: herbicidal effect by foliage application, plastic box (Table 20, symbol O); format: in vivo, lambsquarters (Chenopodium album); conditions: foliage application
Outline: as §3

[9] = tested on: chickweed; assay: Test Example 4: herbicidal effect by soil treatment (Table 19, symbol P); format: in vivo, common chickweed (Stellaria media); conditions: amount of applied herbicide 320 g/ha
Outline: as §1

[10] = tested on: velvetleaf; assay: Test Example 4: herbicidal effect by soil treatment (Table 19, symbol M); format: in vivo, velvetleaf (Abutilon theophrasti); conditions: amount of applied herbicide 320 g/ha
Outline: as §1

[11] = tested on: Chinese sprangletop; assay: Test Example 3: herbicidal effect by foliage application, Wagner pot (Table 18, symbol D); format: in vivo, chinese sprangletop (Leptochloa chinensis); conditions: amount of applied herbicide 320 g/ha
Outline: as §4

[12] = tested on: green foxtail; assay: Test Example 4: herbicidal effect by soil treatment (Table 19, symbol G); format: in vivo, green foxtail (Setaria viridis); conditions: amount of applied herbicide 320 g/ha
Outline: as §1

[13] = tested on: rice flat sedge; assay: Test Example 3: herbicidal effect by foliage application, Wagner pot (Table 18, symbol E); format: in vivo, rice flat sedge (Cyperus iria); conditions: amount of applied herbicide 320 g/ha
Outline: as §4

[14] = tested on: blackgrass; assay: Test Example 5: herbicidal effect by foliage application, plastic box (Table 20, symbol J); format: in vivo, blackgrass (Alopecurus myosuroides); conditions: foliage application
Outline: as §3

[15] = tested on: windgrass; assay: Test Example 5: herbicidal effect by foliage application, plastic box (Table 20, symbol L); format: in vivo, windgrass (Apera spica-venti); conditions: foliage application
Outline: as §3

[16] = tested on: redroot pigweed; assay: Test Example 4: herbicidal effect by soil treatment (Table 19, symbol N); format: in vivo, redroot pigweed (Amaranthus retroflexus); conditions: amount of applied herbicide 320 g/ha
Outline: as §1

[17] = tested on: barnyard grass; assay: Test Example 4: herbicidal effect by soil treatment (Table 19, symbol H); format: in vivo, barnyard grass (Echinochloa crus-galli); conditions: amount of applied herbicide 320 g/ha
Outline: as §1

[18] = tested on: redroot pigweed; assay: Test Example 5: herbicidal effect by foliage application, plastic box (Table 20, symbol N); format: in vivo, redroot pigweed (Amaranthus retroflexus); conditions: foliage application
Outline: as §3

[19] = tested on: Italian ryegrass; assay: Test Example 4: herbicidal effect by soil treatment (Table 19, symbol K); format: in vivo, Italian ryegrass (Lolium multiflorum); conditions: amount of applied herbicide 320 g/ha
Outline: as §1

[20] = tested on: oval-leafed pondweed; assay: Test Example 2: herbicidal activity, application during weed generation under submerged conditions (Table 17, symbol C); format: in vivo, oval-leafed pondweed (Monochoria vaginalis); conditions: AAH 320 g/ha; application during weed generation, submerged conditions
Outline: as §2

[21] = tested on: Italian ryegrass; assay: Test Example 5: herbicidal effect by foliage application, plastic box (Table 20, symbol K); format: in vivo, Italian ryegrass (Lolium multiflorum); conditions: foliage application
Outline: as §3

[22] = tested on: southern crabgrass; assay: Test Example 5: herbicidal effect by foliage application, plastic box (Table 20, symbol F); format: in vivo, southern crabgrass (Digitaria ciliaris); conditions: foliage application
Outline: as §3

[23] = tested on: late watergrass; assay: Test Example 2: herbicidal activity, application during weed generation under submerged conditions (Table 17, symbol A); format: in vivo, late watergrass (Echinochloa oryzicola); conditions: AAH 320 g/ha; application during weed generation, submerged conditions
Outline: as §2

[24] = tested on: persian speedwell; assay: Test Example 5: herbicidal effect by foliage application, plastic box (Table 20, symbol R); format: in vivo, Persian speedwell (Veronica persica); conditions: foliage application
Outline: as §3

[25] = tested on: wild oat; assay: Test Example 5: herbicidal effect by foliage application, plastic box (Table 20, symbol I); format: in vivo, wild oat (Avena fatua); conditions: foliage application
Outline: as §3

[26] = tested on: southern crabgrass; assay: Test Example 4: herbicidal effect by soil treatment (Table 19, symbol F); format: in vivo, southern crabgrass (Digitaria ciliaris); conditions: amount of applied herbicide 320 g/ha
Outline: as §1

[27] = tested on: wild oat; assay: Test Example 4: herbicidal effect by soil treatment (Table 19, symbol I); format: in vivo, wild oat (Avena fatua); conditions: amount of applied herbicide 320 g/ha
Outline: as §1

[28] = tested on: velvetleaf; assay: Test Example 5: herbicidal effect by foliage application, plastic box (Table 20, symbol M); format: in vivo, velvetleaf (Abutilon theophrasti); conditions: foliage application
Outline: as §3

[29] = tested on: barnyard grass; assay: Test Example 5: herbicidal effect by foliage application, plastic box (Table 20, symbol H); format: in vivo, barnyard grass (Echinochloa crus-galli); conditions: foliage application
Outline: as §3

[30] = tested on: persian speedwell; assay: Test Example 4: herbicidal effect by soil treatment (Table 19, symbol R); format: in vivo, Persian speedwell (Veronica persica); conditions: amount of applied herbicide 320 g/ha
Outline: as §1

[31] = AAH 320 g/ha, evaluated three weeks after application
[32] = 320 g/ha, three weeks after application

With CCOC(=O)OC(C)Oc1c(C)nn(C)c(=O)c1-c1c(-c2ccc(OC(F)F)cc2)sc2ccc(F)cc12 (stereo not drawn) [2-308] the “herbicidal effect on O: lambsquarters” value [1] was 0 (Herbicidal rate of 5% or less (almost no effect)), the “herbicidal effect on J: blackgrass” value [2] was 0 (Herbicidal rate of 5% or less (almost no effect)) and the “herbicidal effect rating, B: Japanese bulrush” value [3] was 0 (Herbicidal rate of 5% or less (almost no effect)). For the same molecule, the “G: green foxtail, herbicidal effect (criteria 0-5)” value [4, 31] was 5 (Herbicidal rate of 90% or more (almost completely withered)), the “herbicidal effect on L: windgrass” value [5] was 0 (Herbicidal rate of 5% or less (almost no effect)) and the “herbicidal effect on H: barnyard grass” value [6] was 5 (Herbicidal rate of 90% or more (almost completely withered)). The “P: chickweed, herbicidal effect (criteria 0-5)” value [7, 31] was 5 (Herbicidal rate of 90% or more (almost completely withered)), the “O: lambsquarters, herbicidal effect (criteria 0-5)” value [8, 31] was 5 (Herbicidal rate of 90% or more (almost completely withered)) and the “herbicidal effect on P: chickweed” value [9] was 0 (Herbicidal rate of 5% or less (almost no effect)). The “herbicidal effect on M: velvetleaf” value [10] was 0 (Herbicidal rate of 5% or less (almost no effect)), the “herbicidal effect on D: Chinese sprangletop” value [11] was 3 (Herbicidal rate of 40% or more and less than 70%) and the “herbicidal effect on G: green foxtail” value [12] was 0 (Herbicidal rate of 5% or less (almost no effect)). For the same molecule, the “herbicidal effect on E: rice flat sedge” value [13] was 4 (Herbicidal rate of 70% or more and less than 90%), the “J: blackgrass, herbicidal effect (criteria 0-5)” value [14, 31] was 0 (Herbicidal rate of 5% or less (almost no effect)) and the “L: windgrass, herbicidal effect (criteria 0-5)” value [15, 31] was 0 (Herbicidal rate of 5% or less (almost no effect)). For the same molecule, the “herbicidal effect on N: redroot pigweed” value [16] was 0 (Herbicidal rate of 5% or less (almost no effect)), the “herbicidal effect on H: barnyard grass” value [17] was 0 (Herbicidal rate of 5% or less (almost no effect)) and the “N: redroot pigweed, herbicidal effect (criteria 0-5)” value [18, 31] was 4 (Herbicidal rate of 70% or more and less than 90%). The “herbicidal effect on K: Italian ryegrass” value [19] was 0 (Herbicidal rate of 5% or less (almost no effect)), the “herbicidal effect rating, C: oval-leafed pondweed” value [20] was 0 (Herbicidal rate of 5% or less (almost no effect)) and the “K: Italian ryegrass, herbicidal effect (criteria 0-5)” value [21, 31] was 0 (Herbicidal rate of 5% or less (almost no effect)). The “F: southern crabgrass, herbicidal effect (criteria 0-5)” value [22, 31] was 1 (Herbicidal rate of 5% or more and less than 20%), the “herbicidal effect rating, A: late watergrass” value [23] was 3 (Herbicidal rate of 40% or more and less than 70%) and the “R: persian speedwell, herbicidal effect (criteria 0-5)” value [24, 31] was 5 (Herbicidal rate of 90% or more (almost completely withered)). For the same molecule, the “I: wild oat, herbicidal effect (criteria 0-5)” value [25, 31] was 0 (Herbicidal rate of 5% or less (almost no effect)), the “herbicidal effect on F: southern crabgrass” value [26] was 0 (Herbicidal rate of 5% or less (almost no effect)) and the “herbicidal effect on I: wild oat” value [27] was 0 (Herbicidal rate of 5% or less (almost no effect)). The “M: velvetleaf, herbicidal effect (criteria 0-5)” value [28, 31] was 5 (Herbicidal rate of 90% or more (almost completely withered)), the “H: barnyard grass, herbicidal effect (criteria 0-5)” value [29, 31] was 4 (Herbicidal rate of 70% or more and less than 90%) and the “herbicidal effect on R: persian speedwell” value [30] was 5 (Herbicidal rate of 90% or more (almost completely withered)).

In the case of CCc1nn(C)c(=O)c(-c2c(-c3ccc(F)cc3)sc3ccc(F)cc23)c1O [2-406], the “herbicidal effect, O: lambsquarters” value [1] is reported as 3 (Herbicidal rate of 40% or more and less than 70%), the “herbicidal effect, J: blackgrass” value [2] is reported as 0 (Herbicidal rate of 5% or less (almost no effect)) and the “herbicidal effect rating, B: Japanese bulrush” value [3] is reported as 0 (Herbicidal rate of 5% or less (almost no effect)). For the same molecule, the “G: green foxtail, herbicidal effect grade” value [4, 32] was 5 (Herbicidal rate of 90% or more (almost completely withered)), the “herbicidal effect, L: windgrass” value [5] was 0 (Herbicidal rate of 5% or less (almost no effect)) and the “herbicidal effect on H: barnyard grass” value [6] was 4 (Herbicidal rate of 70% or more and less than 90%). For the same molecule, the “P: chickweed, herbicidal effect grade” value [7, 32] was 5 (Herbicidal rate of 90% or more (almost completely withered)), the “O: lambsquarters, herbicidal effect grade” value [8, 32] was 4 (Herbicidal rate of 70% or more and less than 90%) and the “herbicidal effect, P: chickweed” value [9] was 3 (Herbicidal rate of 40% or more and less than 70%). The “herbicidal effect, M: velvetleaf” value [10] was 3 (Herbicidal rate of 40% or more and less than 70%), the “herbicidal effect on D: Chinese sprangletop” value [11] was 4 (Herbicidal rate of 70% or more and less than 90%) and the “herbicidal effect, G: green foxtail” value [12] was 4 (Herbicidal rate of 70% or more and less than 90%). The “herbicidal effect on E: rice flat sedge” value [13] was 5 (Herbicidal rate of 90% or more (almost completely withered)), the “J: blackgrass, herbicidal effect grade” value [14, 32] was 3 (Herbicidal rate of 40% or more and less than 70%) and the “L: windgrass, herbicidal effect grade” value [15, 32] was 4 (Herbicidal rate of 70% or more and less than 90%). The “herbicidal effect, N: redroot pigweed” value [16] was 4 (Herbicidal rate of 70% or more and less than 90%), the “herbicidal effect, H: barnyard grass” value [17] was 4 (Herbicidal rate of 70% or more and less than 90%) and the “N: redroot pigweed, herbicidal effect grade” value [18, 32] was 5 (Herbicidal rate of 90% or more (almost completely withered)). For the same molecule, the “herbicidal effect, K: Italian ryegrass” value [19] was 3 (Herbicidal rate of 40% or more and less than 70%), the “herbicidal effect rating, C: oval-leafed pondweed” value [20] was 0 (Herbicidal rate of 5% or less (almost no effect)) and the “K: Italian ryegrass, herbicidal effect grade” value [21, 32] was 4 (Herbicidal rate of 70% or more and less than 90%). The “F: southern crabgrass, herbicidal effect grade” value [22, 32] was 3 (Herbicidal rate of 40% or more and less than 70%), the “herbicidal effect rating, A: late watergrass” value [23] was 2 (Herbicidal rate of 20% or more and less than 40%) and the “R: persian speedwell, herbicidal effect grade” value [24, 32] was 5 (Herbicidal rate of 90% or more (almost completely withered)). For the same molecule, the “I: wild oat, herbicidal effect grade” value [25, 32] was 0 (Herbicidal rate of 5% or less (almost no effect)), the “herbicidal effect, F: southern crabgrass” value [26] was 2 (Herbicidal rate of 20% or more and less than 40%) and the “herbicidal effect, I: wild oat” value [27] was 0 (Herbicidal rate of 5% or less (almost no effect)). The “M: velvetleaf, herbicidal effect grade” value [28, 32] was 5 (Herbicidal rate of 90% or more (almost completely withered)), the “H: barnyard grass, herbicidal effect grade” value [29, 32] was 4 (Herbicidal rate of 70% or more and less than 90%) and the “herbicidal effect, R: persian speedwell” value [30] was 0 (Herbicidal rate of 5% or less (almost no effect)).

Source: patent US20230085307A1, “PYRIDAZINONE COMPOUND AND HERBICIDE” (NISSAN CHEMICAL CORPORATION, priority 2019, published 2023)
